ChEMBL document CHEMBL1201862, “PubChem BioAssay data set” (2004)
Values belong to the molecule of their own block, whether it stands above or below them. The source made the active and inactive calls.

Assays:
[1] = NIH-3T3 fibroblast cytotoxicity, dose response, cytotoxicity control, cell-based, fluorescence, Alamar Blue, secondary assay (AID 2327); type: functional;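 also: NIH-3T3 mouse fibroblasts cultured with fluconazole at 8 µg/mL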
[2] = C. albicans growth with fluconazole, confirmation, fluorescence, retest (AID 2467); type: functional, cell-based
[3] = target: FAD-linked sulfhydryl oxidase ALR (Homo sapiens, UniProt P55789); assay: inhibitors of human ALR sulfhydryl oxidase, dose response, biochemical, H2O2 detection, luminescence, cherry-pick (AID 493248)
Sequence of FAD-linked sulfhydryl oxidase ALR (P55789 whole entry): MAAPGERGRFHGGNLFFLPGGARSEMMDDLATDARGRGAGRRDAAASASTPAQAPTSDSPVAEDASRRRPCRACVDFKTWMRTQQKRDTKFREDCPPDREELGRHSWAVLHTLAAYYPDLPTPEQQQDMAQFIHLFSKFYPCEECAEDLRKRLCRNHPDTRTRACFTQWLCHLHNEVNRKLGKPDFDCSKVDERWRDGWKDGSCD

[4] = target: T1, Calpain-2 catalytic subunit (Sus scrofa, UniProt P43367); assay: pig calpain II inhibitor potency, dose response, biochemical, fluorogenic peptide substrate (AID 1420); type: functional
T1 sequence (P43367 whole entry): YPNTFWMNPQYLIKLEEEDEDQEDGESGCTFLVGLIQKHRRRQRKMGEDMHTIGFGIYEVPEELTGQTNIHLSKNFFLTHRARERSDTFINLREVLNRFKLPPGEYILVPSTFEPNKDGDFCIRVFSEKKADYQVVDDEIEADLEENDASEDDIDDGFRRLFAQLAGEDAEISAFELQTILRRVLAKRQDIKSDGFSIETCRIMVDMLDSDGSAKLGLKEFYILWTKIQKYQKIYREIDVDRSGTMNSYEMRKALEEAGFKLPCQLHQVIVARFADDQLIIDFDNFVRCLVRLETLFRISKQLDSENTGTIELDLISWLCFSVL

[5] = target: T2, Heat shock factor protein 1 (Mus musculus, UniProt P38532); assay: HSF1 potentiators in luciferase reporter cells, confirmation, cell-based, NIH3T3, luminescence, dose retest (AID 435004); type: functional;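 also: stress induced by proteasome inhibitor MG132 added 30 min after compound; luciferase reporter driven by HSF1 response element in NIH3T3 cells; actives raise luminescence as potentiators of the MG132 stress response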
T2 sequence (P38532 whole entry): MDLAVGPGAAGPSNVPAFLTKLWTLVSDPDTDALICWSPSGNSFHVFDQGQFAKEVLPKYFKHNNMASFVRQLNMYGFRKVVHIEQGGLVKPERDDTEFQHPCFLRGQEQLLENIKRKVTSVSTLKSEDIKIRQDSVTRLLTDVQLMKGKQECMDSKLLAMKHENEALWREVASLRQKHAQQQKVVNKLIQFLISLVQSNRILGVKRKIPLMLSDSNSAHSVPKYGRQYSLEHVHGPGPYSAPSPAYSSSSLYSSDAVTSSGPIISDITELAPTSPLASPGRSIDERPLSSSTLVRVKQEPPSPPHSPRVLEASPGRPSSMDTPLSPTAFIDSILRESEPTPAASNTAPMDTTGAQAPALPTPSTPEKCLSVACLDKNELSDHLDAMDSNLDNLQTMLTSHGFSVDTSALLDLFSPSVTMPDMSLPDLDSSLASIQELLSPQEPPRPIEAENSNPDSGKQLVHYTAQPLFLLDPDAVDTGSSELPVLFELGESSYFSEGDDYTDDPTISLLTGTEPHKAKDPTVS

[6] = target: T3, RNA-binding protein pos-1 (Caenorhabditis elegans, UniProt G5EF15); assay: inhibitors of POS-1/mex-3 RNA binding, dose response, biochemical, fluorescence polarization (AID 1964);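 also: purified POS-1 fused to maltose binding protein made in E. coli; potency of compounds blocking POS-1 binding to fluorescent RNA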
T3 sequence (G5EF15 whole entry): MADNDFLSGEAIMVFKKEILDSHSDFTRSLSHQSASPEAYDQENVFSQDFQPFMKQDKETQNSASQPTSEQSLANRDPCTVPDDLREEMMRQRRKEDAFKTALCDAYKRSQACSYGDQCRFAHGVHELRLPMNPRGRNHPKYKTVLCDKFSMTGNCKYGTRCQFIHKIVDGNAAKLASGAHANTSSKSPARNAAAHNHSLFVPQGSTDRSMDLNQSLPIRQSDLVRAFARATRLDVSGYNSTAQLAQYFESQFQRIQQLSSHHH

[7] = target: T4, Zinc finger protein mex-5 (Caenorhabditis elegans, UniProt Q9XUB2); assay: MEX-5/TCR-2 RNA interaction inhibitors, dose response, biochemical, C. elegans, fluorescence polarization (AID 1960)
T4 sequence (Q9XUB2 whole entry): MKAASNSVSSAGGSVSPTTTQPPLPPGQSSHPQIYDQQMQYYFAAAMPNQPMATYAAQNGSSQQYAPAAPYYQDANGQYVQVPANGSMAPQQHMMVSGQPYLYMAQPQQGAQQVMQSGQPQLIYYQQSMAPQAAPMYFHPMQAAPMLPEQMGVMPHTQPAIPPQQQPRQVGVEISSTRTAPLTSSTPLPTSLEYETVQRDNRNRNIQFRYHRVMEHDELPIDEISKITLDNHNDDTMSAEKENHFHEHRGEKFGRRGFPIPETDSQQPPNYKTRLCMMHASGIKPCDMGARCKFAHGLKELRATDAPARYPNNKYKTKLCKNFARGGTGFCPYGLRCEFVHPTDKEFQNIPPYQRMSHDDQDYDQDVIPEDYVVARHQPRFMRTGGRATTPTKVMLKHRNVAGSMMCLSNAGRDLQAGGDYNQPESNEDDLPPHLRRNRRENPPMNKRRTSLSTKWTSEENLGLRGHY

[8] = Luminescence Cell-Based Dose Retest to Confirm Inhibitors of Cancer Stem Cells. [Related pubchem assays (depositor defined):AID2717, AID2721]; type: functional; conditions: Homo sapiens
[9] = target: T5, Polyadenylate-binding protein 1 (Homo sapiens, UniProt P11940); assay: PABP1 MLLE–PAM2 interaction inhibitors, dose response, miRNA deadenylation inhibitor project, biochemical, fluorescence polarization, Cy5-PAM2 peptide, secondary (AID 602260); type: functional; conditions: read-out: IC50_Mean
T5 sequence (P11940 whole entry): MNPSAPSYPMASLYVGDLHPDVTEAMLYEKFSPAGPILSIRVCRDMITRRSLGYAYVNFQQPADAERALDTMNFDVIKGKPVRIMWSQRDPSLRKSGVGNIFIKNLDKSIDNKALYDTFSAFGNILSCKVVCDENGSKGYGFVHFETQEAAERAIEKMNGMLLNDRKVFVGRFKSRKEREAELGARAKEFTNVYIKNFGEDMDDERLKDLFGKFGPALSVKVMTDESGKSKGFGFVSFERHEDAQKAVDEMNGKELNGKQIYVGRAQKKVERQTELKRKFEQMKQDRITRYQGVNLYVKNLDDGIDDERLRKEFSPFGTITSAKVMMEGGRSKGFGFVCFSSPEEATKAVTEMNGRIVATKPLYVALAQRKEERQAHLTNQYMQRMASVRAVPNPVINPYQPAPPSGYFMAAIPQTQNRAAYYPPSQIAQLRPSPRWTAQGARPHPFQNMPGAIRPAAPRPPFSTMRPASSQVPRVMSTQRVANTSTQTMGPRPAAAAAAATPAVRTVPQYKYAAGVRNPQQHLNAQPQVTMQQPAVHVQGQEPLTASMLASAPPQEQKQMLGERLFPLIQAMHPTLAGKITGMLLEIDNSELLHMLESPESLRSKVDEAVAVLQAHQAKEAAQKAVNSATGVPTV

[10] = target: T5, Polyadenylate-binding protein 1; assay: PABP1 MLLE–PAM2 binding inhibitor potency, dose response, biochemical, fluorescence polarization, FITC-PAM2 peptide (AID 602259); type: functional; conditions: read-out: IC50_Mean
[11] = cells; type: functional, cell-based
[12] = target: T6, Microphthalmia-associated transcription factor (Homo sapiens, UniProt O75030); assay: TRPM1 promoter luciferase signal decrease, dose response, MITF inhibitor project, cell-based, SK-MEL-5, cherry-picked, set 3 (AID 493073); type: functional
T6 sequence (O75030 whole entry): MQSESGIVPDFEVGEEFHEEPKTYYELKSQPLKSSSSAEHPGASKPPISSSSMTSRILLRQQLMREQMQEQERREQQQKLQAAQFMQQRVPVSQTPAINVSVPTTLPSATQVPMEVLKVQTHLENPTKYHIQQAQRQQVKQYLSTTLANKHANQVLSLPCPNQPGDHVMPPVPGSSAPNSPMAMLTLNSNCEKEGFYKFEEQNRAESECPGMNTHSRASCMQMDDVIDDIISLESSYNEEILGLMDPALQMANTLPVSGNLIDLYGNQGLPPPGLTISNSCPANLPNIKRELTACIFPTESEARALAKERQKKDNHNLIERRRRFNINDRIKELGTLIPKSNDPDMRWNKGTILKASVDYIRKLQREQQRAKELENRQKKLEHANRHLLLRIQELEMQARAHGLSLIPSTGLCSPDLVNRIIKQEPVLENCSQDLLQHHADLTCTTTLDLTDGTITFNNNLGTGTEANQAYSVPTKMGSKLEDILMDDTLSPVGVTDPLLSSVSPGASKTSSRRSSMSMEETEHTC

[13] = cells; type: functional, cell-based; remark: listed apart in the source
[14] = target: Cytochrome P450 2D6 (Homo sapiens, UniProt P10635);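 also: CYP2D6 member of a cytochrome P450 panel assay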
Sequence of Cytochrome P450 2D6 (P10635 whole entry): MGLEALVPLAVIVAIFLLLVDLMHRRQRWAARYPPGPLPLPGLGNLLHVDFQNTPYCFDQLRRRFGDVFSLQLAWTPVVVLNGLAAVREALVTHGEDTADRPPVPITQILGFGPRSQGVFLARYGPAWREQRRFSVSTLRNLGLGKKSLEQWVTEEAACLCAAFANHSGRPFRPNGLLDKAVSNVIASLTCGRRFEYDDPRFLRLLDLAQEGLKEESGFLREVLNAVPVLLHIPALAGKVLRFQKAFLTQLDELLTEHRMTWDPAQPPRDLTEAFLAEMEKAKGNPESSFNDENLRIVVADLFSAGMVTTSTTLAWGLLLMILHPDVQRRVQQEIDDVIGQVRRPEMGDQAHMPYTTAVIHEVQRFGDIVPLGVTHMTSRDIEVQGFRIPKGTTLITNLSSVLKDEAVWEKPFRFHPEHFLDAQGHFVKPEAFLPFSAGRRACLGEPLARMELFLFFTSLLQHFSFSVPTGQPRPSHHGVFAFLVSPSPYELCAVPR

Structure (SMILES): CC(C)CCOC(=O)C1C(c2ccccc2)C(C(=O)O)C1c1ccccc1 (stereo not drawn)
- EC50 [1]: > 160 µM (inconclusive)
- EC50 [2]: 4.96 µM (active)

Structure (SMILES): COc1ccc(N2CCN(C(c3cccs3)C(C)NS(C)(=O)=O)CC2)cc1 (stereo not drawn)
- AC50 [3]: 1.67 µM (active)
- IC50 [4]: 5.8 µM (not active)

Structure (SMILES): COc1ccc(N(C(=O)Cn2nnc3ccccc32)C(C(=O)NC(C)(C)C)c2ccc(OC)c(O)c2)cc1 (stereo not drawn)
- EC50 [1]: > 150 µM (inactive)
- EC50 [2]: 1.62 µM (active)

Structure (SMILES): O=C(CCS(=O)(=O)Cc1ccccc1)Nc1nnc(C(F)(F)F)s1
- EC50 [1]: > 160 µM (inactive)
- EC50 [2]: 0.741 µM (active)

Structure (SMILES): CC(Oc1cc2oc(=O)c3c(c2cc1Cl)CCCC3)C(=O)NCc1ccncc1 (stereo not drawn)
- EC50 [1]: > 150 µM (inactive)
- EC50 [2]: > 38 µM (not active)

Structure (SMILES): CC(=O)Nc1ccc(SC[C@H](C)CN2CC[C@H](C(C)(C)C)CCC2=O)cc1
- AC50 [3]: 0.687 µM (active)
- AC50 [8]: 1.47 µM (active)
- IC50 [9]: > 66 µM (inactive)
- IC50 [10]: > 66 µM (inactive)

Structure (SMILES): O=C(O)CCC(=O)N1N=C(c2cccs2)CC1c1cn(-c2ccccc2)nc1-c1ccccc1 (stereo not drawn)
- EC50 [6]: 46.5 µM (active)
- EC50 [7]: > 300 µM (not active)

Structure (SMILES): CCN(CC)S(=O)(=O)c1cccc(C(=O)N/N=C(\C)c2ccc(O)cc2O)c1
- EC50 [11]: 11.7 µM (active)
- AC50 [12]: 3.74 µM (active)
- EC50 [13]: > 350 µM (not active)

Structure (SMILES): CC1(C)Cc2ccccc2C(N/N=C/c2ccc([N+](=O)[O-])cc2)=N1
- EC50 [1]: > 150 µM (inactive)
- EC50 [2]: > 38 µM (not active)

Further lines, results first:

- EC50 [5]: > 260 µM (inactive)
Structure (SMILES): CS(=O)(=O)c1ccc(Cl)c(C(=O)NCC2CCCCC2)c1

- EC50 [6]: > 300 µM (not active)
- EC50 [7]: > 300 µM (not active)
Structure (SMILES): N=C(N)NS(=O)(=O)c1ccc(NC(=S)NC(=O)/C=C/c2cccs2)cc1

- EC50 [6]: > 300 µM (not active)
- EC50 [7]: > 300 µM (not active)
Structure (SMILES): NC(=O)C1(N2CCCCC2)CCN(Cc2nc(-c3cccs3)no2)CC1

- EC50 [5]: > 260 µM (inactive)
Structure (SMILES): CCCCCNC(=O)C1CCC(Cn2c(=S)[nH]c3ccccc3c2=O)CC1 (stereo not drawn)

- EC50 [5]: > 260 µM (inactive)
Structure (SMILES): COc1ccc(S(=O)(=O)Nc2cc3c4c(oc3c3ccccc23)CCCC4=O)cc1

- EC50 [5]: > 260 µM (inactive)
Structure (SMILES): COc1ccc(OC)c(NC(=O)CNC(c2ccccc2)c2ccccc2)c1

- EC50 [5]: > 260 µM (inactive)
Structure (SMILES): COc1ccccc1N1CCN(C(=O)C(CC(C)C)NC(=O)C2CCCCC2)CC1 (stereo not drawn)

- EC50 [5]: > 260 µM (inactive)
Structure (SMILES): O=S(=O)(c1ccc(Oc2ccccc2)cc1)N1CCOCC1

- EC50 [5]: > 260 µM (inactive)
Structure (SMILES): Cc1ccc(CNC(=O)Cn2ccc3ccccc3c2=O)o1

- EC50 [6]: > 300 µM (not active)
- EC50 [7]: 10.9 µM (active)
Structure (SMILES): CC1=C(C(=O)OCc2ccccc2)C(c2ccccc2[N+](=O)[O-])NC(=O)N1C (stereo not drawn)

- EC50 [6]: 4.13 µM (active)
- EC50 [7]: 35.1 µM (active)
Structure (SMILES): CN1C(=O)c2ccccc2NC(=O)[C@]12O[C@@H]2c1cccc(O)c1

- AC50 [12]: 19.1 µM (active)
- AC50 [14]: 15.8 µM (inconclusive)
Structure (SMILES): Cc1ccc(NCC(=O)N/N=C\c2ccc([N+](=O)[O-])o2)cc1
